Source: article PMC10687260, “1,3-Diphenylureido hydroxamate as a promising scaffold for generation of potent antimalarial histone deacetylase inhibitors” (Scientific Reports, 2023)

What was measured:
[1] = tested on: P. falciparum 3D7; experiment: Antiplasmodial SYBR Green I proliferation assay, P. falciparum 3D7; assay type: cell-based, Plasmodium falciparum; details: Plasmodium falciparum, 3D7, 96 h, 96 h; values in brackets 95% confidence intervals; read-out: IC50 Pf3D7
From the text: Antiplasmodial activity against P. falciparum 3D7 (A, C and E) and P. falciparum Dd2 (B, D, F). […] Curves were plotted using non-linear regression based on means from three independent experiments measured in triplicate. Error bars indicate standard deviation, whose values are provided in the respective table.
Plasmodium falciparum culture and antiplasmodial activity. […] Development, parasitaemia, and morphology of parasites were monitored by light microscopy of thin blood smears stained according to the Romanowsky method (Panótico Rápido staining kit; Laborclin, Pinhais, Paraná, Brazil). […] Fresh 0^+ blood was generously provided by “Hospital Novo Atibaia” (Atibaia, SP, Brazil), and approved by the ethics committee at ICB-USP. The antiplasmodial effect of all compounds was validated against P. falciparum 3D7 strain conducting SYBR Green I (Invitrogen) drug assays as previously reported[30],[46] as a modification of the original procedure. […] Parasite proliferation was measured by the DNA load via fluorescence, using 100 μL of a lysis buffer with SYBR Green I (0.02% v/v) and incubated for 1 h at room temperature in the dark. […] Focal and gain adjustment was performed using the non-treated controls (highest expected fluorescence signal). Data was acquired via the CLARIOstar (V5.20) and MARS software, manually scaled to 0–100%, and plotted using GraphPad Prism (v9.5.2 for Windows, GraphPad Software, La Jolla California USA, www.graphpad.com). Non-treated parasites, the highest solvent concentration on parasites, CQ on parasites, and the highest drug concentration in the medium were used as controls for maximal growth, solvent control, positive biological control, and native drug fluorescence, respectively.

[2] = tested on: HepG2 cells; experiment: Cytotoxicity in human HepG2 cells (WST-1); assay type: cell-based; details: Homo sapiens, HepG2; 48 h, WST-1; read-out: IC50 HepG2
Protocol: Cytotoxicity in human HepG2 cells.[47] […] Cytotoxic effects of compounds were assessed using the cell proliferation reagent WST-1 (Roche; CELLPRO-RO) in a 96-well plate-based screening assay. HepG2 cells were seeded at 10^4 cells/well (100 μL) in 96-well flat-bottom plates (Sarstedt) the night before the experiment to allow attachment of cells. The next day, two-fold serial dilutions of compounds were prepared in fresh medium in an extra plate, and the medium of cells was replaced by the medium containing the compound dilutions. Non-treated cells (max. proliferation), cells treated with the maximal solvent concentration (DMSO; solvent control), and medium with the maximal compound concentration (native absorbance) used as controls. […] Subsequently, 10 μL WST-1 was added to each well and plates were incubated for additional 4 h under standard conditions. WST-1 is a tetrazolium salt and is metabolised by the mitochondrial succinate-tetrazolium-reductase system of living cells and forms formazan, whose absorbance was measured at 450 nm. Absorbance at 630 nm was assessed to check for protein and precipitation background. Both measurements were acquired via the CLARIOstar (V5.20) and MARS software, manually scaled to 0–100%, and plotted with GraphPad Prism (version 9.5.2 for Windows, GraphPad Software, La Jolla California USA).

[3] = molecular target: T1, human HDAC6 (Homo sapiens, UniProt Q9UBN7); experiment: In vitro HDAC enzymatic assay, HDAC6; assay type: biochemical; details: for IC50: mean ± SD; for HDAC1/6 SI: ratio HsHDAC1 IC50/HsHDAC6 IC50
T1 construct: purchased ENZO Life Sciences AG (Lausen, CH)
T1 sequence (Q9UBN7 1-1215): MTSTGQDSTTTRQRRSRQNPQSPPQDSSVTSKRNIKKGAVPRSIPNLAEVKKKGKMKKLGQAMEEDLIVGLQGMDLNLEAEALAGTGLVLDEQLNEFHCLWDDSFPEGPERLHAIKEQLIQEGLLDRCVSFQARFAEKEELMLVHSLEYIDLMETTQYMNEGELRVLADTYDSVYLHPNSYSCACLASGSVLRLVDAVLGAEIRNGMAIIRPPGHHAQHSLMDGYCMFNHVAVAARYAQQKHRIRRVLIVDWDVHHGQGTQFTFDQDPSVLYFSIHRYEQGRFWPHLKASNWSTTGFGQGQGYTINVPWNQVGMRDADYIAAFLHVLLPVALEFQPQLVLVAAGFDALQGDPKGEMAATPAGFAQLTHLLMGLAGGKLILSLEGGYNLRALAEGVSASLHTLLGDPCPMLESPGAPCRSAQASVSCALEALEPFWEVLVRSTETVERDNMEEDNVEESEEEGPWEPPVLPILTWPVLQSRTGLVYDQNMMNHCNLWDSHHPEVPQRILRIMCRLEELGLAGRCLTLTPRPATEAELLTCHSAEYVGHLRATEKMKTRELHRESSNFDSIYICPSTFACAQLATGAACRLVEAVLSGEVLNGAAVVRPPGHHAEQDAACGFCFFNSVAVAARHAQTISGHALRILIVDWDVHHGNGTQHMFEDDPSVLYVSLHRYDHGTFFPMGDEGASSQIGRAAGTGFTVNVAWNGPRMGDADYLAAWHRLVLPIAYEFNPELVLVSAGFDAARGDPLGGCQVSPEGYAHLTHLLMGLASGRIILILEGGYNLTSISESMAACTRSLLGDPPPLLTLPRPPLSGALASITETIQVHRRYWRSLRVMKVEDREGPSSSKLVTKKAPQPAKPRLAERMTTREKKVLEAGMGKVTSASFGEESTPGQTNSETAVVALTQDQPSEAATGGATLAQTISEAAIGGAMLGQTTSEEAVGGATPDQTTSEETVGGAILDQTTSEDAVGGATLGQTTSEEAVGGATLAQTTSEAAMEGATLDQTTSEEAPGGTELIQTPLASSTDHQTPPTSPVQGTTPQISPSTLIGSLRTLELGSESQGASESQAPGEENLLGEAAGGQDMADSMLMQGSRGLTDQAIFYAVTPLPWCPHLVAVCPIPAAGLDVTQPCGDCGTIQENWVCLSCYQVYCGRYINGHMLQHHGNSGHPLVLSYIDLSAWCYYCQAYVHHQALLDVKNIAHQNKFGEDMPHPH
Protocol: (§1) In vitro HDAC enzymatic assays. Recombinant human HDAC1 and HDAC6 were purchased from ENZO Life Sciences AG (Lausen, CH) whereas HDAC8 was produced as described before. In vitro testing of the inhibitors in an enzymatic assay was carried out as described in previous publications[32],[33]. For HDAC1 a fluorogenic peptide derived from p53 (Ac-RHKK(Acetyl)-AMC) was used. For HDAC6, the substrate (Abz-SRGGK(thio-TFA)FFRR-NH2) was used as described before.

[4] = molecular target: T2, human HDAC1 (Homo sapiens, UniProt Q13547); experiment: In vitro HDAC enzymatic assay, HDAC1; assay type: biochemical; details: mean ± SD
T2 construct: purchased ENZO Life Sciences AG (Lausen, CH)
T2 sequence (Q13547 whole entry): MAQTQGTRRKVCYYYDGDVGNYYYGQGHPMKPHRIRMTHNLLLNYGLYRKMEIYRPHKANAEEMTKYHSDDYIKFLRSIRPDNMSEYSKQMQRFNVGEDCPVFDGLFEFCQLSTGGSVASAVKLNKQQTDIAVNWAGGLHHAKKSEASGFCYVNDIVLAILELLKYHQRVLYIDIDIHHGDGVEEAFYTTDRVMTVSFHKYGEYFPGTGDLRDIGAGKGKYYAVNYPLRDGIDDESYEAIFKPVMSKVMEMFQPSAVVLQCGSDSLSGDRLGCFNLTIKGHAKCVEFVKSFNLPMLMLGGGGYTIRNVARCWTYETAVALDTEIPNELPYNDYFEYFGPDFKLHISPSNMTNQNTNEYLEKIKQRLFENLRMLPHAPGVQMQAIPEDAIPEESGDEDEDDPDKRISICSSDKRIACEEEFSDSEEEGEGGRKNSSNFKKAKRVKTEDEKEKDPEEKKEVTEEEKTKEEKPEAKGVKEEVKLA
Protocol: as §1

[5] = molecular target: T3, HDAC8 (Homo sapiens, UniProt Q9BY41); experiment: In vitro HDAC enzymatic assay, HDAC8; assay type: biochemical; details: mean ± SD
T3 construct: made in house
T3 sequence (Q9BY41 1-377): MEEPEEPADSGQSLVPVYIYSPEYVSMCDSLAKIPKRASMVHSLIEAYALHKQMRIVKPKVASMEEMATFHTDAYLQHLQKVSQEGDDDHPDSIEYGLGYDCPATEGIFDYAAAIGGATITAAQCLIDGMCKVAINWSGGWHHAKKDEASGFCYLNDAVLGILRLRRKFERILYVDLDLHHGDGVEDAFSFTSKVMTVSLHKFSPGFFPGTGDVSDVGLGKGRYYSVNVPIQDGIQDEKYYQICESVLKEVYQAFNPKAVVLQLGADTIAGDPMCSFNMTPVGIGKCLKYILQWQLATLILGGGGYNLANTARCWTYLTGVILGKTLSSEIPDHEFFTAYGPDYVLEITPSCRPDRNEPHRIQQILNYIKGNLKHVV
Protocol: as §1

[6] = molecular target: T4, CYP450 2D6 (Homo sapiens, UniProt P10635); experiment: CYP450 inhibition in human liver microsomes, 2D6; assay type: in vitro ADME; details: Tested concentration: 40 µM
T4 construct: 10 μM compound was incubated with human liver microsomes and selective marker substrates; from tissue; host or cells: human liver microsomes
T4 sequence (P10635 whole entry): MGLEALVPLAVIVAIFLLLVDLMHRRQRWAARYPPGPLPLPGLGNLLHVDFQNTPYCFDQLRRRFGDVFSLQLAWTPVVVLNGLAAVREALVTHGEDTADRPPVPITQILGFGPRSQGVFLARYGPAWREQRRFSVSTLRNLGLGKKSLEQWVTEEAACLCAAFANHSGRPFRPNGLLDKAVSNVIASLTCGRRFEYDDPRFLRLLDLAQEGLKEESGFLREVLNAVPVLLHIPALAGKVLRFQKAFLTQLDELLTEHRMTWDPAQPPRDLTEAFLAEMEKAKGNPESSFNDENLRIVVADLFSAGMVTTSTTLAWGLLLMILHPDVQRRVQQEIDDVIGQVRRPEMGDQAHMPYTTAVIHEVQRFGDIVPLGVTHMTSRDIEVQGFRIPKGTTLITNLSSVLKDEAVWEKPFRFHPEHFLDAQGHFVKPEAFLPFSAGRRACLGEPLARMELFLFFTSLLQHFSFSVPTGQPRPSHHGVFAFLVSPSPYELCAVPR

[7] = molecular target: T5, CYP450 2C9 (Homo sapiens, UniProt P11712); experiment: CYP450 inhibition in human liver microsomes, 2C9; assay type: in vitro ADME
T5 construct: 10 μM compound was incubated with human liver microsomes and selective marker substrates; from tissue; host or cells: human liver microsomes
T5 sequence (P11712 whole entry): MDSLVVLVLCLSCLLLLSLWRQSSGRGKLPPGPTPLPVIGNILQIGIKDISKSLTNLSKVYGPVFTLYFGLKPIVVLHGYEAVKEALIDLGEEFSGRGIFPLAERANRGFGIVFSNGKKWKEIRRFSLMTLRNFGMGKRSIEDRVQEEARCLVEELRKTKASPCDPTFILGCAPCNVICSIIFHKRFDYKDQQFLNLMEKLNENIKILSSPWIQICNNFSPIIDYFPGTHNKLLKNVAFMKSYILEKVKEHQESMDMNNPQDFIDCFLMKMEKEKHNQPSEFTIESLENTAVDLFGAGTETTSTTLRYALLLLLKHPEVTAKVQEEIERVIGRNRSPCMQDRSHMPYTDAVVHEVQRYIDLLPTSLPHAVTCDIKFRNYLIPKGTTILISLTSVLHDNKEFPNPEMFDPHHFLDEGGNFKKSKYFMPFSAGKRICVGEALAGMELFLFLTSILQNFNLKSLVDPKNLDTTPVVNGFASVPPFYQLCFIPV

[8] = molecular target: T6, CYP1A2 (Homo sapiens, UniProt P05177); experiment: CYP450 inhibition in human liver microsomes, 1A2; assay type: in vitro ADME; details: Tested concentration: 1.0 µM
T6 construct: 10 μM compound was incubated with human liver microsomes and selective marker substrates; from tissue; host or cells: human liver microsomes
T6 sequence (P05177 1-516): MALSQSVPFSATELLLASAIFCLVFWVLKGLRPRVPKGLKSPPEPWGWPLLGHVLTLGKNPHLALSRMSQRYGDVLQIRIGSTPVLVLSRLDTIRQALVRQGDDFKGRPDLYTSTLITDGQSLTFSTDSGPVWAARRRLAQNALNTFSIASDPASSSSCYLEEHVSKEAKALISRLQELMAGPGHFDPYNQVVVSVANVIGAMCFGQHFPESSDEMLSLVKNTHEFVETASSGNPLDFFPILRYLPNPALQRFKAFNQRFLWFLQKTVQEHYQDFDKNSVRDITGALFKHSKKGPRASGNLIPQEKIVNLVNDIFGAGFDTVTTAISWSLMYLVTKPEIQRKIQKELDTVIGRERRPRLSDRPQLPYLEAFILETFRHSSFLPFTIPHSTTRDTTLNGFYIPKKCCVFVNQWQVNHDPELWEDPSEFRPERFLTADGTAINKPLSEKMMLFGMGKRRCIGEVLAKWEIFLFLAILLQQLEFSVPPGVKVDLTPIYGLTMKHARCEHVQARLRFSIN

[9] = Stability in mouse hepatic microsomes; assay type: in vitro ADME
From the text: (§2) DMPK evaluation. […].

[10] = Stability in human hepatic microsomes; assay type: in vitro ADME
From the text: as §2

Row | SMILES | IC50 [1] [nM] | IC50 [2] [nM] | IC50 [3] [nM] | also measured
1 | O=C(Nc1ccc(OC(F)(F)F)cc1)Nc1ccc(C(=O)NO)cc1 [8 g, N-hydroxy-4-(3-(4-(trifluoromethoxy)phenyl)ureido)benzamide] | 13900 | 60500 | – | –
2 | N/C(=N\O)c1ccc(NC(=O)Nc2ccc(C(=O)NO)cc2)cc1 [8 h, (Z)-N-hydroxy-4-(3-(4-(N'-hydroxycarbamimidoyl)phenyl)ureido)benzamide] | 390 | > 200000 | 21.3 ± 0.5 | melting point: 97 to 99 °C; HDAC1/6 SI [3]: 390; IC50 [4]: 8300 ± 481 nM; IC50 [5]: 164 ± 9.1 nM
3 | N#Cc1ccc(NC(=O)Nc2ccc(C(=O)NO)cc2)cc1 [8 k, 4-(3-(4-cyanophenyl)ureido)-N-hydroxybenzamide] | 260 | > 200000 | 11.6 ± 0.2 | melting point: 220 to 222 °C; HDAC1/6 SI [3]: 323; IC50 [4]: 3750 ± 563 nM; IC50 [5]: 51.5 ± 6.1 nM
4 | O=C(/C=C/c1ccc(NC(=O)Nc2ccc(Cl)cc2)cc1)NO [Compound 6b, (E)-3-(4-(3-(4-chlorophenyl)ureido)phenyl)-N-hydroxyacrylamide] | 7880 | 28800 | 14.3 ± 2.2 | –
5 | O=C(/C=C/c1ccc(NC(=O)Nc2ccc([N+](=O)[O-])cc2)cc1)NO [Compound 6d, (E)-N-hydroxy-3-(4-(3-(4-nitrophenyl)ureido)phenyl)acrylamide] | 1260 | 10400 | 9 ± 0.7 | melting point: 167 to 168 °C; HDAC1/6 SI [3]: 124; IC50 [4]: 1110 ± 56.3 nM; IC50 [5]: 99.1 ± 10.9 nM
6 | O=C(CCc1ccc(NC(=O)Nc2ccc(Cl)cc2)cc1)NO [Compound 7b, 3-(4-(3-(4-chlorophenyl)ureido)phenyl)-N-hydroxypropanamide] | 7040 | > 50000 | 185 ± 21.6 | melting point: 286 °C (dec.); HDAC1/6 SI [3]: 26; IC50 [4]: 4780 ± 446 nM; IC50 [5]: 568 ± 40.5 nM
7 | Cc1ccc(NC(=O)Nc2ccc(C(=O)NO)cc2)cc1 [Compound 8e, N-hydroxy-4-(3-(p-tolyl)ureido)benzamide] | 340 | > 200000 | – | –
8 | O=C(Nc1ccc(F)cc1)Nc1ccc(C(=O)NO)cc1 [Compound 8f., 4-(3-(4-fluorophenyl)ureido)-N-hydroxybenzamide] | 400 | 116000 | – | –
9 | O=C(Nc1ccc(C(=O)NO)cc1)Nc1ccc(C(F)(F)F)cc1 [Compound 8i, N-hydroxy-4-(3-(4-(trifluoromethyl)phenyl)ureido)benzamide] | 1300 | 25100 | – | –
10 | Nc1ccc(NC(=O)Nc2ccc(C(=O)NO)cc2)cc1 [Compound 8j, 4-(3-(4-aminophenyl)ureido)-N-hydroxybenzamide] | 350 | > 200000 | – | –
11 | Nc1ccc(C(=O)NO)cc1 [Compound 15, 4-amino-N-hydroxybenzamide] | 6300 | > 200000 | – | –
12 | Cc1nc2c([nH]1)c(=O)n(C)c(=O)n2Cc1ccco1 [Furafylline, reference compound] | – | – | – | CYP450% inhibition 2D6 [6]: * (Inhibition < 10%); CYP450% inhibition 2C9 ([7]; Tested concentration: 40 µM): * (Inhibition < 10%)
13 | CC(=O)N1CCN(c2ccc(OCC3COC(Cn4ccnc4)(c4ccc(Cl)cc4Cl)O3)cc2)CC1 (stereo not drawn) [Ketoconazole, reference compound] | – | – | – | CYP450% inhibition 1A2 [8]: * (Inhibition < 10%); CYP450% inhibition 2C9 ([7]; Tested concentration: 1.0 µM): * (Inhibition < 10%)
14 | CCN(CC)CCNC(=O)c1c(C)[nH]c(/C=C2\C(=O)Nc3ccc(F)cc32)c1C [Sunitinib, reference compound] | – | – | – | half-life at 1 µM ([9]; 1 mg/mL hepatic microsomes, 1 µM compound, read-out: Half-life t1/2 Mouse): 9.1 min; microsomal CLint at 1 µM ([9]; read-out: Intrinsic clearance Clint Mouse): 76 µL/min/mg; half-life at 1 µM ([10]; 1 mg/mL hepatic microsomes, 1 µM compound, read-out: Half-life t1/2 Human): 22.3 min; microsomal CLint at 1 µM ([10]; read-out: Intrinsic clearance Clint Human): 31 µL/min/mg
